O=C(O)c1ccc(C(=O)O)cc1
solubility (mole fraction)
Conditions | in 2-ethylhexanol | in DMAc | in DMF | in DMSO | in NMP | in pyridine
313.15 K | 0.000293 | 0.0155 | 0.0325 | 0.0964 | 0.0558 | 0.0767
318.15 K | 0.000335 | 0.0199 | 0.0337 | 0.0989 | 0.0646 | 0.0767
323.15 K | 0.000377 | 0.0243 | 0.035 | 0.102 | 0.0736 | 0.0766
328.15 K | 0.000429 | 0.0304 | 0.0361 | 0.104 | 0.0838 | 0.0768
333.15 K | 0.000482 | 0.0365 | 0.0372 | 0.107 | 0.094 | 0.0769
338.15 K | 0.000559 | 0.0453 | 0.0383 | 0.108 | 0.0952 | 0.077
343.15 K | 0.000636 | 0.0541 | 0.0394 | 0.11 | 0.0963 | 0.077
348.15 K | 0.000724 | 0.065 | 0.0412 | 0.113 | 0.0974 | 0.0774
353.15 K | 0.000812 | 0.076 | 0.0429 | 0.116 | 0.0985 | 0.0778
358.15 K | 0.000915 | 0.0823 | 0.0442 | 0.118 | 0.0999 | 0.0783
363.15 K | 0.00102 | 0.0886 | 0.0455 | 0.121 | 0.101 | 0.0787

From BigSolDB 2.1
